{
  "source": "patent US20220312768A1",
  "about": "“COMBINATIONS OF AGROCHEMICALS WITH METABOLIC INHIBITORS” (THE BOARD OF TRUSTEES OF THE UNIVERSITY OF ARKANSAS, priority 2021, published 2022)",
  "key": {"Palmer amaranth [1]": {"tested_on": "Palmer amaranth", "parameters": "species or system Amaranthus palmeri", "details": "in vivo"}, "Palmer amaranth [2]": {"tested_on": "Palmer amaranth", "test": "Greenhouse experiment, GST blockers added to KFD-581-01, Palmer amaranth control and biomass reduction", "type": "in vivo, Amaranthus palmi", "details": "for Palmer amaranth control, relative effectiveness of treatments: 7 DAA; for Palmer amaranth control versus KFD-581-01 applied alone / Reduction in above-ground biomass compared to the untreated check: 14 DAA, higher rates + KFD-581-01 300 g ai/ha"}, "[3]": {"details": "all rates (17, 34, 67 g ai/ha) + KFD-581-01 300 g ai/ha"}},
  "note": "“And” between values parts separate entries of the source, which are not always exact repeats. Equal values may be shown once. “Also recorded” adds a separate entry of the source.",
  "data": [
    {"smiles": "CP(=O)(O)CCC(N)C(=O)O", "note": "(centres unmarked) [Glufosinate, 2-amino-4-[hydroxy(methyl)phosphoryl]butanoic acid]", "values": [
      {"measurement": "Palmer amaranth control (%)", "setting": "Palmer amaranth [1]", "result": "74% and 60% and 74b % and 60c %"}
    ]},
    {"smiles": "O=C(O)[C@H]1O[C@@H](Oc2cc3oc(-c4ccccc4)cc(=O)c3c(O)c2O)[C@H](O)[C@@H](O)[C@@H]1O", "note": "[baicalin]", "values": [
      {"measurement": "Palmer amaranth control, relative effectiveness of treatments", "setting": "Palmer amaranth [2]; two highest rates (34 and 67 g ai/ha) + KFD-581-01 300 g ai/ha", "result": "most effective; also recorded: more effective than any rate of curcumin or NBD-CL"},
      {"measurement": "Palmer amaranth control versus KFD-581-01 applied alone", "setting": "Palmer amaranth [2]", "result": "increased levels of Palmer amaranth control"}
    ]},
    {"smiles": "O=C(O)/C=C/c1ccc(O)c(O)c1", "note": "[caffeic acid]", "values": [
      {"measurement": "Palmer amaranth control, relative effectiveness of treatments", "setting": "Palmer amaranth [2]; [3]", "result": "most effective; also recorded: more effective than any rate of curcumin or NBD-CL"},
      {"measurement": "Palmer amaranth control versus KFD-581-01 applied alone", "setting": "Palmer amaranth [2]", "result": "increased levels of Palmer amaranth control"},
      {"measurement": "Efficacy at the highest rate versus low or mid rates", "setting": "Palmer amaranth [2]; 67 g ai/ha versus 17 or 34 g ai/ha, + KFD-581-01 300 g ai/ha", "result": "decreased efficacy at the highest rate"}
    ]},
    {"smiles": "O=c1oc2c(O)c(O)cc3c(=O)oc4c(O)c(O)cc1c4c23", "note": "[ellagic acid]", "values": [
      {"measurement": "Palmer amaranth control, relative effectiveness of treatments", "setting": "Palmer amaranth [2]; [3]", "result": "most effective; also recorded: more effective than any rate of curcumin or NBD-CL"},
      {"measurement": "Palmer amaranth control versus KFD-581-01 applied alone", "setting": "Palmer amaranth [2]", "result": "increased levels of Palmer amaranth control"},
      {"measurement": "Reduction in above-ground biomass compared to the untreated check", "setting": "Palmer amaranth [2]", "result": "largest reductions in biomass"}
    ]},
    {"smiles": "O=c1c(O)c(-c2ccc(O)c(O)c2)oc2cc(O)cc(O)c12", "note": "[quercetin]", "values": [
      {"measurement": "Palmer amaranth control, relative effectiveness of treatments", "setting": "Palmer amaranth [2]; [3]", "result": "most effective; also recorded: more effective than any rate of curcumin or NBD-CL"},
      {"measurement": "Reduction in above-ground biomass compared to the untreated check", "setting": "Palmer amaranth [2]", "result": "largest reductions in biomass"}
    ]}
  ]
}
